Laboratory results reported in PubChem BioAssay AID180 (DTP/NCI, 2004).
Several values for one entry are separate records, joined by “and”; a condition that tells them apart may be missing. Equal entries are not always repeated.

Tested on: BDF1 mice, Adenocarcinoma 755 s.c., tumor weight T/C
Assay: NCI In Vivo Anticancer Drug Screen. Data for tumor model Adenocarcinoma 755 (subcutaneous) in B6D2F1 (BDF1) mice
Conditions: endpoint: mean tumor weight, higher = larger tumour
Procedure, shortened: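 Readout: T/C, i.e. treated-group measurement over vehicle-control measurement. Endpoint is survival or tumor size in tumor-bearing mice given compound.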

[1] = dose: 225.0 mg/kg/injection, schedule: Q01DX011 (ip), vehicle: methylcellulose (MC)

SMILES: O=C(CCBr)NCCCCCCNC(=O)CCBr
- T/C (dose: 56.0 mg/kg/injection, schedule: Q01DX011 (ip), vehicle: methylcellulose (MC)): 114 % of control
- T/C (dose: 113.0 mg/kg/injection, schedule: Q01DX011 (ip), vehicle: methylcellulose (MC)): 67 % of control
- T/C [1]: 114 % of control

SMILES: CC1CCc2ccccc2N1C(=O)CCCl (configuration not stated)
- T/C (dose: 25.0 mg/kg/injection, schedule: Q01DX011 (ip), vehicle: methylcellulose (MC)): 48 % of control
- T/C (dose: 75.0 mg/kg/injection, schedule: Q01DX011 (ip), vehicle: methylcellulose (MC)): 82 % of control
- T/C [1]: 50 % of control

SMILES: CC1CN1P(=O)(N1CCCCC1)N1CC1C (configuration not stated)
- T/C (dose: 3.0 mg/kg/injection, schedule: Q01DX011 (ip), vehicle: saline): 107 % of control and 86 % of control
- T/C (dose: 6.0 mg/kg/injection, schedule: Q01DX011 (ip), vehicle: saline): 57 % of control and 71 % of control
- T/C (dose: 48.0 mg/kg/injection, schedule: Q01DX011 (ip), vehicle: saline): 11 % of control

SMILES: CC(=O)OCC(=O)[C@@]1(O)CC[C@H]2[C@@H]3CCC4=CC(=O)C=C[C@]4(C)[C@H]3[C@@H](O)C[C@@]21C
- T/C (dose: 20.0 mg/kg/injection, schedule: Q01DX011 (sc), vehicle: steriod suspending solution): 23 % of control and 26 % of control
- T/C (dose: 40.0 mg/kg/injection, schedule: Q01DX011 (sc), vehicle: steriod suspending solution): 24 % of control and 26 % of control
- T/C (dose: 67.5 mg/kg/injection, schedule: Q01DX011 (sc), vehicle: steriod suspending solution): 30 % of control
- T/C (dose: 80.0 mg/kg/injection, schedule: Q01DX011 (sc), vehicle: steriod suspending solution): 88 % of control
- T/C (dose: 160.0 mg/kg/injection, schedule: Q01DX011 (sc), vehicle: steriod suspending solution): 40 % of control

SMILES: Nc1nc2c(nc(I)n2C2OC(CO)C(O)C2O)c(=O)[nH]1 (configuration not stated)
- T/C (dose: 30.0 mg/kg/injection, schedule: Q01DX011 (ip), vehicle: carboxymethylcellulose (CMC)): 94 % of control
- T/C (dose: 60.0 mg/kg/injection, schedule: Q01DX011 (ip), vehicle: carboxymethylcellulose (CMC)): 87 % of control
- T/C (dose: 120.0 mg/kg/injection, schedule: Q01DX011 (ip), vehicle: carboxymethylcellulose (CMC)): 26 % of control
- T/C (dose: 240.0 mg/kg/injection, schedule: Q01DX011 (ip), vehicle: carboxymethylcellulose (CMC)): 40 % of control

SMILES: O=S(=O)(OCCCl)OCCCl
- T/C (dose: 12.5 mg/kg/injection, schedule: Q01DX011 (ip), vehicle: olive oil, sesame oil, peanut oil): 109 % of control
- T/C (dose: 25.0 mg/kg/injection, schedule: Q01DX011 (ip), vehicle: olive oil, sesame oil, peanut oil): 86 % of control

SMILES: Cc1cccc(N=Nc2c(S(=O)(=O)O)cc3cc(NC(=O)Nc4ccc5c(O)c(N=Nc6ccc7cc(S(=O)(=O)O)ccc7c6)c(S(=O)(=O)O)cc5c4)ccc3c2O)c1
- T/C (dose: 45.0 mg/kg/injection, schedule: Q01DX011 (ip), vehicle: carboxymethylcellulose (CMC)): 81 % of control

SMILES: CC(=O)OCC1OC(n2cnc3c(=S)nc(N)[nH]c32)C(OC(C)=O)C1OC(C)=O (configuration not stated)
- T/C (dose: 0.1 mg/kg/injection, schedule: Q01DX011 (ip), vehicle: carboxymethylcellulose (CMC)): 86 % of control
- T/C (dose: 0.2 mg/kg/injection, schedule: Q01DX011 (ip), vehicle: carboxymethylcellulose (CMC)): 77 % of control
- T/C (dose: 0.5 mg/kg/injection, schedule: Q01DX011 (ip), vehicle: carboxymethylcellulose (CMC)): 69 % of control
- T/C (dose: 1.0 mg/kg/injection, schedule: Q01DX011 (ip), vehicle: carboxymethylcellulose (CMC)): 11 % of control and 35 % of control
- T/C (dose: 1.5 mg/kg/injection, schedule: Q01DX011 (ip), vehicle: other): 26 % of control
- T/C (dose: 3.0 mg/kg/injection, schedule: Q01DX011 (ip), vehicle: other): 3 % of control
